Laboratory results from patent US12629382B2, “Therapy” (Vestlandets Innovasjonsselskap AS, priority 2019, dated 2026).

What was measured:
Format in all cases: cell-based
A172 glioma cells = assay: Intracellular GSH, GSH-Glo assay, A172 cells; conditions: Homo sapiens, 48 h, normalized to untreated control; for activity at 250 µM: A 172, 250 μM compound, read-out: Intracellular GSH level A172 250 μM; for activity at 500 µM: A 172, 500 μM compound, read-out: Intracellular GSH level A172 500 μM
Protocol: (§1) The cancer cell lines A172, A375, U87 and MCF7 were purchased from American Type Culture Collection (ATCC; Manassas, Va., USA). Cells were cultured in Dulbecco's Modified Eagle's Medium (DMEM) supplemented with 10% fetal bovine serum, 2% v/v L-glutamine, 3.2% v/v non-essential amino acids, antibiotics 2% v/v (penicillin-streptomycin), and 0.02% v/v Plasmocin at 37° C. and 5% CO2.
(§2) xCT expression of cancer cell lines was evaluated by western blotting from protein samples of cell lysates as described in Sleire et al., Oncogene 34: 5951-5959, 2015. Protein concentrations were determined by BCA assay (Thermo Fisher Scientific, USA) followed by SDS PAGE and immunoblotting using rabbit anti-xCT (Thermo Fisher Scientific) and rabbit anti-GAPDH (Abcam, Cambridge, UK) as a loading control. The compounds were dissolved in dimethylsulfoxide (DMSO) (Sigma Aldrich, Germany) and stock concentrations of 100 mM were stored at −20° C. in aliquots. Final concentrations were made in growth medium before adding to the cell monolayers.
(§3) The compounds were evaluated based on the measurement of intracellular Glutathione (GSH) which was performed by the GSH-Glo assay (Promega, Madison, WI, USA, cat #V6912) according to the manufacturer's recommended procedures. 5000 cells per well were seeded in a flat bottomed 96-well plate. After attachment to the well surface, cells were exposed to 250 μM and 500 μM of each compound for 48 h. After that, GSH-Glo reagent was added followed by short incubation and addition of luciferin detection reagent. Bioluminescence was measured using a luminometer (Victor 3 1420 multi-label counter, Perkins Elmer, Waltham, MA, USA). IC50 doses for the compounds SAS, DC10 and DC14 were determined in A172 glioma cells, using the GraphPad Prism v6 software (GraphPad Software, Inc. CA, USA). All measurements were normalized to the untreated control and were performed three times.

A375 = assay: Intracellular GSH, GSH-Glo assay, A375 cells; conditions: Homo sapiens, 48 h, normalized to untreated control; for activity at 250 µM: A-375, 250 μM compound, read-out: Intracellular GSH level A375 250 μM; for activity at 500 µM: A-375, 500 μM compound, read-out: Intracellular GSH level A375 500 μM
Protocol: as §1, §2, §3

MCF7 = assay: Intracellular GSH, GSH-Glo assay, MCF7 cells; conditions: Homo sapiens, 48 h, normalized to untreated control; for activity at 250 µM: 250 μM compound, read-out: Intracellular GSH level MCF7 250 μM; for activity at 500 µM: 500 μM compound, read-out: Intracellular GSH level MCF7 500 μM
Protocol: as §1, §2, §3

U87 = assay: Intracellular GSH, GSH-Glo assay, U87 cells; conditions: Homo sapiens, U-87 MG, 48 h, normalized to untreated control; for activity at 250 µM: 250 μM compound, read-out: Intracellular GSH level U87 250 μM; for activity at 500 µM: 500 μM compound, read-out: Intracellular GSH level U87 500 μM
Protocol: as §1, §2, §3

SMILES	activity at 250 µM (A172 glioma cells) [%]	activity at 500 µM (A172 glioma cells) [%]	activity at 250 µM (A375) [%]	activity at 500 µM (A375) [%]	activity at 250 µM (MCF7) [%]	activity at 500 µM (MCF7) [%]	activity at 250 µM (U87) [%]	activity at 500 µM (U87) [%]
COc1ccc(C#Cc2ccccc2)cc1C(=O)O [DC04, 2-methoxy-5-(phenylethynyl)benzoic acid]	86.9	77.6	63.4	42.4	91.4	68	80.6	88.6
Nc1ccc(/C=C/c2ccccc2)cc1C(=O)O [DC12, (E)-2-amino-5-styrylbenzoic acid]	107	101	116	95.6	116	96.5	104	117
O=C(O)c1cc(/C=C/c2ccccc2)ccc1O [DC02, (E)-2-hydroxy-5-styrylbenzoic acid]	90.9	41	50.4	32	47.4	15.9	82.2	66.9
CC1(C)c2ccccc2-c2ccc(/C=C/c3ccc(O)c(C(=O)O)c3)cc21 [DC21, (E)-5-(2-(9,9-dimethyl-9H-fluoren-2-yl)vinyl)-2-hydroxybenzoic acid]	4.9	2.8	4.2	3.3	5.7	4.2	5	3.8
COc1ccc(/C=C/c2ccccc2)cc1C(=O)O [DC01, (E)-2-methoxy-5-styrylbenzoic acid]	84.6	76.2	60.5	43.1	93.8	66.5	76.6	79.6
O=C(O)c1cc(-c2ccc(-c3ccccc3)cc2)ccc1O [DC17, 4-hydroxy-[1,1′:4′,1″-terphenyl]-3-carboxylic acid]	98.4	28.7	56.6	4.6	51.7	17	66.2	20.2
O=C(O)c1cc(/C=C/c2ccccc2-c2ccccc2)ccc1O [DC19, (E)-5-(2-([1,1′-biphenyl]-2-yl)vinyl)-2-hydroxybenzoic acid]	58.7	3.3	47.8	3.7	51	4.3	64.6	5
CC(=O)Nc1ccc(/C=C/c2ccccc2)cc1C(=O)O [DC16, (E)-2-acetamido-5-styrylbenzoic acid]	67.3	51.7	34.5	26.4	92.4	83.7	73.5	63.2
Oc1ccc(/C=C/c2ccccc2)cc1-c1nnn[nH]1 [DC15, (E)-4-styryl-2-(1H-tetrazol-5-yl)phenol]	55.1	9.7	53.3	46.4	75.8	32.6	104	50.4
CSc1ccc(/C=C/c2ccc(O)c(C(=O)O)c2)cc1 [DC08, (E)-2-hydroxy-5-(4-(methylthio)styryl)benzoic acid]	28.8	9.3	25.9	3.7	21.1	6.6	51.1	8.4
O=C(O)c1cc(/C=C/c2ccc(S(=O)(=O)Nc3ccccc3)cc2)ccc1O [DC14, (E)-2-hydroxy-5-(4-(N-phenylsulfamoyl)styryl)benzoic acid]	23.1	2.4	4.5	2	25.9	1.8	18	1.9
O=C(O)c1cc(/C=C/c2cccc(-c3ccccc3)c2)ccc1O [DC18, (E)-5-(2-([1,1′-biphenyl]-3-yl)vinyl)-2-hydroxybenzoic acid]	74	3.7	53.7	3.4	54.6	4.8	66.5	4.6
O=C(O)c1cc(-c2ccc3ccccc3c2)ccc1O [DC11, 2-hydroxy-5-(naphthalen-2-yl)benzoic acid]	28.4	10.2	36.1	11.8	23.7	8.8	62.6	22.7
O=C(O)c1cc(/C=C/c2ccc(F)cc2)ccc1O [DC07, (E)-5-(4-fluorostyryl)-2-hydroxybenzoic acid]	81.6	16.8	23.8	7.8	22.1	6.9	50.4	11.7
COc1ccc(-c2ccc3ccccc3c2)cc1C(=O)O [DC05, 2-methoxy-5-(naphthalen-2-yl)benzoic acid]	75.6	57.7	47.6	37.9	82.4	39	42.9	39.5
CS(=O)(=O)c1ccc(/C=C/c2ccc(O)c(C(=O)O)c2)cc1 [DC13, (E)-2-hydroxy-5-(4-(methylsulfonyl)styryl)benzoic acid]	94.1	81.6	74.3	59.7	88.3	76.6	105	103
Cc1cc(O)c(C(=O)O)c(C)c1-c1ccc2ccccc2c1 [DC20, 6-hydroxy-2,4-dimethyl-3-(naphthalen-2-yl)benzoic acid]	82.1	11.9	63.1	4.6	40.5	9.7	61.1	6.1
COc1ccc(/C=C\c2ccccc2)cc1C(=O)O [DC03, (Z)-2-methoxy-5-styrylbenzoic acid]	77.5	68.2	68.6	47.6	94.9	49.4	87.9	88.4
